Values quoted from earlier work, collected in patent US20040028772A1, “Method for preparation of chewing gum with customer acceptable taste” (priority 2000, published 2004).
Structures can show the parent of a compound that is named as a salt.

Structure (SMILES)	water solubility (in words)	water-soluble / solubility in water [g/100 ml]
CC1=C(/C=C/C(C)=C/C=C/C(C)=C/CO)C(C)(C)CCC1 [A-vitamin]	not water-soluble	
CC(=O)O.CC(=O)O.NC(=N\CCCCCC/N=C(N)/N=C(\N)Nc1ccc(Cl)cc1)/N=C(\N)Nc1ccc(Cl)cc1 [Chlorhexidine diacetate]		1.9
N=C(NCCCCCCNC(=N)NC(=N)Nc1ccc(Cl)cc1)NC(=N)Nc1ccc(Cl)cc1.O=C(O)[C@H](O)[C@@H](O)[C@H](O)[C@H](O)CO.O=C(O)[C@H](O)[C@@H](O)[C@H](O)[C@H](O)CO [Chlorhexidine digluconat]	mixable	
[H]/N=C(\N/C(=N/[H])NCCCCCCNC(=N)NC(=N)Nc1ccc(Cl)cc1)Nc1ccc(Cl)cc1 [Chlorhexidine dihydrochloride]		0.06
Clc1ccc(COC(Cn2ccnc2)c2ccc(Cl)cc2Cl)c(Cl)c1 (stereo not shown) [Miconazol]		< 0.001
C[C@]12CC[C@H]3[C@@H](CCC4=CC(=O)CC[C@@H]43)[C@@H]1CC[C@@H]2O [nandrolone]	heavily soluble	
CC(=O)Nc1ccc(O)cc1 [paracetamol]		1.4
